Here are results for one molecule from ChEMBL document CHEMBL3832039, “DailyMed|setid=8e4382de-df78-4821-b11e-c423442a7ff8 | DIOVAN - valsartan tablet|PD-Rx Pharmaceuticals, Inc”.

Broadly, the Tmax is the time from dosing to the highest level. What is called half-life is how long it takes for the measured level to halve.

Format in all cases: ADME, organism-based
Data set [1] in a line: (§1) Pharmacokinetic parameters for Valsartan following oral or intravenous administration of Valsartan solution. To be noted: human, in vivo, dosed compound id 15, dosed compound name VALSARTAN, tissue Plasma.
The subject of the next data set is Homo sapiens. The data set is described as §1. To be noted: in vivo, po, dosed compound id 15, dosed compound name VALSARTAN
Data set [2] is described as follows: Apparent clearance of Valsartan following oral administration of 40 to 160 mg Valsartan, twice a day, to heart failure patients. To be noted: human, in vivo, dose Range 40 to 160 mg, dosed compound id 15, dosed compound name VALSARTAN, regimen Every 12h, tissue Plasma, read-out: CL(app) (converted).

Regarding `CCCCC(=O)N(Cc1ccc(-c2ccccc2-c2nnn[nH]2)cc1)[C@H](C(=O)O)C(C)C` [VALSARTAN], the Tmax in data set [1] (po) was in the range of 2 to 4 h. In addition, in data set [1] (route iv), the clearance is 33.3 mL/min and the half-life is 6 h. The CL renal in data set [1] (route iv, read-out: CL_renal (converted)) was 10.3 mL/min. In data set [1] (route iv, read-out: Vss), the Vd is 17 L. In the data set on Homo sapiens (tissue Feces), this molecule came in with an Excretion of 83%. The same molecule came in with an Excretion with Homo sapiens (tissue Urine) of 13%. Besides, in data set [2], the CL/F is 75 mL/min.
